Test results published in PMC4710522, “A Novel Triazolopyridine-Based Spleen Tyrosine Kinase Inhibitor That Arrests Joint Inflammation” (PLoS ONE, 2016).
Values belong to the molecule of their own block, whether it stands above or below them.

Experiments:
[1] = test system: Tel-Syk expressing BaF3 cells; assay: Tel-Syk BaF3 viability assay (growth factor-independent growth); format: cell-based, murine; details: Tel-Syk BaF3, absence of IL-3
Experimental: HEK293 T-REx™ (Life Technologies, Grand Island, NY) stably transfected with human TEL-Syk (cloned as described prior section DNA constructs) were plated on black poly-D-lysine coated 96-well plates (BD Biosciences, San Diego, CA) in culture media containing tetracycline-free fetal bovine serum (Clontech, MountainView, CA) for 16 hours in a tissue culture incubator. Tel-Syk expression was induced for 6 hours in fresh growth media containing 1 μg/ml tetracycline (Sigma Chemicals, St. Louis, MO). Plates were preincubated with CC-509 for 90 minutes, fixed immediately with 4% formaldehyde in 1X PBS for 20 min at room temperature, and washed/permeabilized 5-times with PBS containing 0.1% Triton X-100. Plates were blocked with Odyssey Blocking Buffer for 90 minutes at room temperature and incubated overnight at 4°C on a rotating platform with rabbit phospho-Syk (1:1000) and mouse V5 (1:2500) primary antibodies diluted in Odyssey Blocking Buffer. […] Viability of BaF/3 cells expressing Tel-Syk grown in the absence of murine IL-3 was measured using Cell-Titer Glo reagent (Promega, Madison, WI), as described by supplier.

[2] = test system: rat passive cutaneous anaphylaxis model; assay: rat passive cutaneous anaphylaxis (PCA) model; format: in vivo; details: positive control cromolyn 100 mg/kg IV, p<0.001
Experimental: On day 0, male CD-IGS rats (170 – 190g; Charles River Laboratories) were anesthetized with isofluorane, their dorsal region shaved and 50 μl Anti-DNP-IgE (Clone SPE-7, Sigma, St. Louis, MO) that had been diluted 1:1000 in saline was injected via the intradermal route at 3 individual spots along the right side of the back. Saline was injected via the intradermal route at 3 individual spots along the left side of the back as a sham control. Twenty-four hours later, 200 μl of BSA-DNP (Calbiochem, San Diego, CA), prepared (1 mg prepared in a 2% solution of Evans blue dye: Sigma Chemicals, St. Louis, MO) was injected via the IV route via the tail vein. Thirty minutes after the BSA-DNP challenge the experiment was terminated and skin samples from the middle of each injection site taken for Evans blue dye measurement at an OD measurement at 620nm on a plate reader following incubation (2h at 90°C) and homogenization in formamide (Sigma Chemicals, St. Louis, MO). Vehicle (20% Captisol® (Captisol), PO), the positive control (Cromolyn: Sigma Chemicals, St. Louis, MO 100mg/kg, 2mL/kg, IV) or CC0484509 (3 and 10mg/kg, PO) were dosed 1h prior to the IV challenge with BSA-DNP.
For the TEL-Syk assay, the intensity values for the 700 and 800 channel were exported as text files in ActivityBase (IDBS, Guildford, UK) to derive the ratios that reflect kinase activity. For LAD2 experiments, enzyme activity values were exported as text files into ActivityBase to calculate “percent release” according to the formula: 100* supernatant OD405/ (supernatant OD405 + (pellet OD405*pellet dilution factor)). For the basophil and B-cells assays, flow cytometry data was exported from the FACS Array and processed using FloJo software package (TreeStar, Inc., Ashland, Oregon). For the JAK2 HEL and Ramos NFAT β-lactamase assays, the fluorescence values obtained at 460 nm and 530 nm were exported into ActivityBase to calculate response ratios. For the neutrophil, macrophage, KDR, and JAK1/3 assays, raw values were exported into ActivityBase to calculate percent inhibition. All IC50 calculations were generated using XLfit (IDBS, Guildford, UK) algorithm 205 within Excel. For PCA, the OD from the saline injected site was subtracted from the OD from the anti-DNP IgE injected site. Evans blue dye extravasation was expressed as mean ± SEM and % inhibition for the test article groups was normalized to the cromolyn positive control. For the CIA model paw measurements (left and right ankle diameter) were taken for each individual animal and averaged. The mean data from each group was plotted and either the AUC(day 11–18) or % inhibition on day 18 was calculated. Data is expressed as mean ± SEM of each group with n = 6–12. […]

[3] = design: method as in PMID 19096013; details: chronic and refractory ITP; cited from earlier work
[4] = test system: rat collagen-induced arthritis model; assay: rat collagen-induced arthritis (CIA) model, paw swelling; format: in vivo; details: Indomethacin 2 mg/kg oral, p<0.01
Experimental: Female Lewis rats (150 – 170g; Charles River Laboratories) were house standard shoebox cages, fed Harlan-Tekald diet and water ad libitum and maintained on a 12h light/dark cycle. For induction of arthritis rats were anesthetized with isofluorane and their entire dorsal area shaved. Rats were injected (intradermal) with 100 μl of equal volumes of collagen (Chrondrex, Redmond, WA) and IFA (Sigma Chemicals, St. Louis, MO) emulsion in 10 sites across the dorsal region. At disease onset 11 days following immunization animals were randomized into groups based on their ankle measurements and test article administration was initiated. Rats were dosed orally with vehicle (20% Captisol®), Indomethacin (Sigma Chemicals, St. Louis, MO, 2mg/kg) or CC-509 (15, 25mg/kg QD or 15mg/kg BID) in a dose volume of 5ml/kg. […] On the last day of the study animals were split into 2 cohorts and bleed twice via tail bleed under isofluorane anesthesia and a third terminal bleed following CO2 asphyxiation to obtain a time course of plasma compound exposure at 30minutes, 1, 2, 4, 8 and 24h after the last dose of CC-509.
For the TEL-Syk assay, the intensity values for the 700 and 800 channel were exported as text files in ActivityBase (IDBS, Guildford, UK) to derive the ratios that reflect kinase activity. For LAD2 experiments, enzyme activity values were exported as text files into ActivityBase to calculate “percent release” according to the formula: 100* supernatant OD405/ (supernatant OD405 + (pellet OD405*pellet dilution factor)). For the basophil and B-cells assays, flow cytometry data was exported from the FACS Array and processed using FloJo software package (TreeStar, Inc., Ashland, Oregon). For the JAK2 HEL and Ramos NFAT β-lactamase assays, the fluorescence values obtained at 460 nm and 530 nm were exported into ActivityBase to calculate response ratios. For the neutrophil, macrophage, KDR, and JAK1/3 assays, raw values were exported into ActivityBase to calculate percent inhibition. All IC50 calculations were generated using XLfit (IDBS, Guildford, UK) algorithm 205 within Excel. For PCA, the OD from the saline injected site was subtracted from the OD from the anti-DNP IgE injected site. Evans blue dye extravasation was expressed as mean ± SEM and % inhibition for the test article groups was normalized to the cromolyn positive control. For the CIA model paw measurements (left and right ankle diameter) were taken for each individual animal and averaged. The mean data from each group was plotted and either the AUC(day 11–18) or % inhibition on day 18 was calculated. Data is expressed as mean ± SEM of each group with n = 6–12. Statistical analysis was performed with Prism Graphpad using one-way ANOVA followed by Dunnett’s comparison using the vehicle group as the control or for measurements over time a 2 way ANOVA followed by a Dunnett’s multiple comparison test. Statistical significance was deemed as * = p<0.05, **p<0.01, ***p<0.001 and p<0.0001.

[5] = test system: proinflammatory analytes in paw tissue; assay: inflammatory cytokines measured in the paw, rat CIA; format: in vivo; details: day 18; CC-509 all dose levels p<0.01; indomethacin p<0.05
Experimental: Following the last administration of CC-509, paw samples were collected and processed for cytokine and chemokine analysis (Aushon Biosciences, Billerica, MA). Briefly paws were snap-frozen and pulverized in liquid nitrogen followed by addition of cell signal lysis buffer in the presence of protease and phosphatase inhibitors (Sigma Chemicals, St. Louis, MO). Samples were homogenized on high speed for 30 seconds, incubated on ice for 20 minutes then sonicated at high intensity for 1 minute. Samples were spun at high speed and supernatants were collected for cytokine analysis.

IC50 [1]: 2.24 ± 0.29 µM
SMILES: NCCNc1ncc(C(N)=O)c(Nc2cccc(C(F)(F)F)c2)n1 [Syk II inhibitor, reference compound]

SMILES: O=C(O)c1cc(=O)c2c(OCC(O)COc3cccc4oc(C(=O)O)cc(=O)c34)cccc2o1 [cromolyn, reference compound]
inhibition of skin edema compared to vehicle control group [2]: 79%

SMILES: COc1cc(Nc2ncc(F)c(Nc3ccc4c(n3)N(COP(=O)(O)O)C(=O)C(C)(C)O4)n2)cc(OC)c1OC [fostamatinib]
patients with durable platelet responses [3]: 8/16

SMILES: COc1ccc2c(c1)c(CC(=O)O)c(C)n2C(=O)c1ccc(Cl)cc1 [indomethacin, reference compound]
inhibition of paw swelling [4]: 82%
MIP-1α in the paw [5]: significantly inhibited
